The text below walks through data of ChEMBL document CHEMBL4304811, “Development of a Water-Soluble Indolylmaleimide Derivative IM-93 Showing Dual Inhibition of Ferroptosis and NETosis” (ACS Med Chem Lett, 2019).

Test [1] addresses Serine/threonine-protein kinase tousled-like 1 (Homo sapiens) (UniProt Q9UKI8). Nature of the test: Binding affinity to wild-type human partial length TLK1 (K447 to A754 residues) expressed in bacterial expression system assessed as residual binding level at 10 uM by Kinomescan method relative to control.
Test [2] addresses Mitogen-activated protein kinase 7 (Homo sapiens) (UniProt Q13164). Nature of the test: Binding affinity to wild-type human partial length ERK5 (M1 to A409 residues) expressed in bacterial expression system assessed as residual binding level at 10 uM by Kinomescan method relative to control.
The target in test [3] is Mitogen-activated protein kinase kinase kinase 14 (Homo sapiens) (UniProt Q99558). In words: Binding affinity to wild-type human partial length NIK (L318 to P947 residues) expressed in mammalian expression system assessed as residual binding level at 10 uM by Kinomescan method relative to control.
Test [4] has as its target Serine/threonine-protein kinase D3 (Homo sapiens) (UniProt O94806). In words: Binding affinity to wild-type human partial length PRKD3 (S543 to E863 residues) expressed in bacterial expression system assessed as residual binding level at 10 uM by Kinomescan method relative to control.
The target in test [5] is Ribosomal protein S6 kinase alpha-4 (Homo sapiens) (UniProt O75676). In words: Binding affinity to wild-type human partial length N-terminal RPS6KA4 kinase domain 1 expressed in bacterial expression system assessed as residual binding level at 10 uM by Kinomescan method relative to control.
Test [6] addresses Dual specificity mitogen-activated protein kinase kinase 2 (Homo sapiens) (UniProt P36507). Nature of the test: Binding affinity to wild-type human full length MEK2 (M1 to V400 residues) expressed in mammalian expression system assessed as residual binding level at 10 uM by Kinomescan method relative to control.
Test [7] addresses Ribosomal protein S6 kinase alpha-3 (Homo sapiens) (UniProt P51812). Nature of the test: Binding affinity to wild-type human partial length C-terminal RSK2 kinase domain 2 (V402 to S715 residues) expressed in mammalian expression system assessed as residual binding level at 10 uM by Kinomescan method relative to control.
Test [8] addresses Mitogen-activated protein kinase kinase kinase kinase 4 (Homo sapiens) (UniProt O95819). In words: Binding affinity to wild-type human partial length MAP4K4 (M1 to R310 residues) expressed in bacterial expression system assessed as residual binding level at 10 uM by Kinomescan method relative to control.
The target of test [9] is Protein kinase C theta type (Homo sapiens) (UniProt Q04759). In words: Binding affinity to wild-type human partial length PRKCQ (L350 to S706 residues) expressed in bacterial expression system assessed as residual binding level at 10 uM by Kinomescan method relative to control.
Test [10] deals with Protein kinase C eta type (Homo sapiens) (UniProt P24723). Nature of the test: Binding affinity to wild-type human partial length PRKCH (S324 to P683 residues) expressed in bacterial expression system assessed as residual binding level at 10 uM by Kinomescan method relative to control.
Test [11] deals with Serine/threonine-protein kinase 26 (Homo sapiens) (UniProt Q9P289). In words: Binding affinity to wild-type human full length MST4 (M1 to P416 residues) expressed in mammalian expression system assessed as residual binding level at 10 uM by Kinomescan method relative to control.
Test [12] addresses Serine/threonine-protein kinase N2 (Homo sapiens) (UniProt Q16513). In words: Binding affinity to wild-type human partial length PKN2 (E634 to C984 residues) expressed in bacterial expression system assessed as residual binding level at 10 uM by Kinomescan method relative to control.
The target of test [13] is Glycogen synthase kinase-3 beta (Homo sapiens) (UniProt P49841). Nature of the test: Binding affinity to wild-type human full length GSK3B (M1 to T433 residues) expressed in mammalian expression system assessed as residual binding level at 10 uM by Kinomescan method relative to control.
Test [14] deals with Ribosomal protein S6 kinase alpha-6 (Homo sapiens) (UniProt Q9UK32). In words: Binding affinity to wild-type human partial length N- terminal RSK4 kinase domain 1 (M1 to E397 residues) expressed in mammalian expression system assessed as residual binding level at 10 uM by Kinomescan method relative to control.
Test [15] addresses Fibroblast growth factor receptor 4 (Homo sapiens) (UniProt P22455). In words: Binding affinity to wild-type human partial length FGFR4 (G402 to E713 residues) expressed in bacterial expression system assessed as residual binding level at 10 uM by Kinomescan method relative to control.
The target of test [16] is Tyrosine-protein kinase receptor TYRO3 (Homo sapiens) (UniProt Q06418). In words: Binding affinity to wild-type human partial length TYRO3 (S497 to T814 residues) expressed in bacterial expression system assessed as residual binding level at 10 uM by Kinomescan method relative to control.
The target in test [17] is Tyrosine-protein kinase Fer (Homo sapiens) (UniProt P16591). In words: Binding affinity to wild-type human partial length FER (S542 to T822 residues) expressed in bacterial expression system assessed as residual binding level at 10 uM by Kinomescan method relative to control.
Test [18] deals with Receptor-type tyrosine-protein kinase FLT3 (Homo sapiens), P36888 [UNDEFINED MUTATION]. In words: Binding affinity to human partial length FLT3 ITD mutant expressed in bacterial expression system assessed as residual binding level at 10 uM by Kinomescan method relative to control.
In test [19] the target is Mitogen-activated protein kinase kinase kinase 12 (DLK) (Homo sapiens) (UniProt Q12852). In words: Binding affinity to wild-type human full length DLK (M1 to P859 residues) expressed in mammalian expression system assessed as residual binding level at 10 uM by Kinomescan method relative to control.
In test [20] the target is Calcium/calmodulin-dependent protein kinase type II subunit delta (Homo sapiens) (UniProt Q13557). Nature of the test: Binding affinity to wild-type human partial length CAMK2D (M1 to E329 residues) expressed in bacterial expression system assessed as residual binding level at 10 uM by Kinomescan method relative to control.
Test [21] concerns Phosphatidylinositol 4,5-bisphosphate 3-kinase catalytic subunit alpha isoform (Homo sapiens), P42336 [E545K]. Nature of the test: Binding affinity to human partial length PIK3CA E545K mutant (R108 to N1068 residues) expressed in mammalian expression system assessed as residual binding level at 10 uM by Kinomescan method relative to control.
Test [22] concerns the target Serine/threonine-protein kinase SIK1 (Homo sapiens) (UniProt P57059). Nature of the test: Binding affinity to wild-type human partial length SIK (M1 to Y304 residues) expressed in bacterial expression system assessed as residual binding level at 10 uM by Kinomescan method relative to control.
Test [23] addresses Mitogen-activated protein kinase kinase kinase 9 (Homo sapiens) (UniProt P80192). In words: Binding affinity to wild-type human partial length MLK1 (V88 to W426 residues) expressed in bacterial expression system assessed as residual binding level at 10 uM by Kinomescan method relative to control.
The target of test [24] is 5'-AMP-activated protein kinase catalytic subunit alpha-1 (Homo sapiens) (UniProt Q13131). Nature of the test: Binding affinity to wild-type human partial length AMPK alpha1 (M1 to E306 residues) expressed in bacterial expression system assessed as residual binding level at 10 uM by Kinomescan method relative to control.

Sequence of Glycogen synthase kinase-3 beta (Homo sapiens) (P49841 whole entry, looked up, the tested form may be a part): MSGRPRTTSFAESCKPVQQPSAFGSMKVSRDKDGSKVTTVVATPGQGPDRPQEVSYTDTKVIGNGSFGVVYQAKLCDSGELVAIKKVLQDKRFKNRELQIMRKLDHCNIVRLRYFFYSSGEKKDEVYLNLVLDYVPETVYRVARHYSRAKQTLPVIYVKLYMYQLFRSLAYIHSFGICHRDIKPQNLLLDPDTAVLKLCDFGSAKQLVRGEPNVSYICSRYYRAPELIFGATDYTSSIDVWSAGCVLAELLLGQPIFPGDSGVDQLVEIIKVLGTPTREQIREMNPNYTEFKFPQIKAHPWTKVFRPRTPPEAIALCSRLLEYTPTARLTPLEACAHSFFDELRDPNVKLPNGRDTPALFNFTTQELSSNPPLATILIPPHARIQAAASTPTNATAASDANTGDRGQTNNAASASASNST
Sequence of Ribosomal protein S6 kinase alpha-4 (Homo sapiens) (O75676 whole entry, looked up, the tested form may be a part): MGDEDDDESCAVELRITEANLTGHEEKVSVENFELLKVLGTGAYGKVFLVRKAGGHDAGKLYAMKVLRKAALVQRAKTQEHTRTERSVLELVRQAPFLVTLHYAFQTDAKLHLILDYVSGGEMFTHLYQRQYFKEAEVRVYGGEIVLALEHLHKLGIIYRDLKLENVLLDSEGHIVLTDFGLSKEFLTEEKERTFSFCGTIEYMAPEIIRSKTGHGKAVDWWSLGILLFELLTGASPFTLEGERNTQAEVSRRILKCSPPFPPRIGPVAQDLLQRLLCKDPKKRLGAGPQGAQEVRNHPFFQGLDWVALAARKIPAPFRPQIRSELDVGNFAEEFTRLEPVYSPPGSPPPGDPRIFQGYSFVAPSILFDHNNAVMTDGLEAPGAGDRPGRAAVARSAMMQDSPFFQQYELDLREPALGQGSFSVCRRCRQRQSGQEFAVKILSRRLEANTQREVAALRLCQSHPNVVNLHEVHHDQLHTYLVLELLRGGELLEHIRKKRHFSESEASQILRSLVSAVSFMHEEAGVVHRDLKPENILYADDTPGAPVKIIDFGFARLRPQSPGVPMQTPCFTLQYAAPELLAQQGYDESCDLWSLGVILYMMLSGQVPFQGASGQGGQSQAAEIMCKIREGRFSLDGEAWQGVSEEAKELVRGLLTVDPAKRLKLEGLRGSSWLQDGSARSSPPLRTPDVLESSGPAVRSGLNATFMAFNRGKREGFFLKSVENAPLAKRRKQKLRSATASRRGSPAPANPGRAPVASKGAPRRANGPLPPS
Sequence of Serine/threonine-protein kinase D3 (Homo sapiens) (O94806 whole entry, the tested form may be a part): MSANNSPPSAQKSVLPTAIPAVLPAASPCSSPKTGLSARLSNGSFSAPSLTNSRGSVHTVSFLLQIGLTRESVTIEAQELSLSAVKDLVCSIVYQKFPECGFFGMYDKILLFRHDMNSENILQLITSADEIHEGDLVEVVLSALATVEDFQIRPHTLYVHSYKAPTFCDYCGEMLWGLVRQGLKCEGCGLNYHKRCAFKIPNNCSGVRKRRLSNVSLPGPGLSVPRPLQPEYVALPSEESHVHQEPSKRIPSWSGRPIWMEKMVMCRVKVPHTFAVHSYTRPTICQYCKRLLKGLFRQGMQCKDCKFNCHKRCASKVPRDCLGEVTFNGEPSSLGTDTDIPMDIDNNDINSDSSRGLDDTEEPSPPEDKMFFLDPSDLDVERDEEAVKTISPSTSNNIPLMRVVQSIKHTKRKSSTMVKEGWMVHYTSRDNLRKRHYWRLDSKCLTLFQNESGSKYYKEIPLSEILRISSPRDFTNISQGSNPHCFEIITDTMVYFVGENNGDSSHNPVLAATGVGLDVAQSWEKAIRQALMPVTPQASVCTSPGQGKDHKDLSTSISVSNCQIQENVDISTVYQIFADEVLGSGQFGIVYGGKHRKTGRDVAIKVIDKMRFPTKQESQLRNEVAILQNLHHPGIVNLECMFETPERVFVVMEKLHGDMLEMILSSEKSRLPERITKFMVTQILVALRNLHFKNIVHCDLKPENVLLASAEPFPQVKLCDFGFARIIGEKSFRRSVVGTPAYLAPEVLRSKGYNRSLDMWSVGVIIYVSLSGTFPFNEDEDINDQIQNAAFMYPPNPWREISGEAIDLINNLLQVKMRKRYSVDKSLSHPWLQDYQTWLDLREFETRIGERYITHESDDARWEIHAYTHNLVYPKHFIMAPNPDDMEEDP
Sequence of Serine/threonine-protein kinase 26 (Homo sapiens) (Q9P289 2-416 limits assumed): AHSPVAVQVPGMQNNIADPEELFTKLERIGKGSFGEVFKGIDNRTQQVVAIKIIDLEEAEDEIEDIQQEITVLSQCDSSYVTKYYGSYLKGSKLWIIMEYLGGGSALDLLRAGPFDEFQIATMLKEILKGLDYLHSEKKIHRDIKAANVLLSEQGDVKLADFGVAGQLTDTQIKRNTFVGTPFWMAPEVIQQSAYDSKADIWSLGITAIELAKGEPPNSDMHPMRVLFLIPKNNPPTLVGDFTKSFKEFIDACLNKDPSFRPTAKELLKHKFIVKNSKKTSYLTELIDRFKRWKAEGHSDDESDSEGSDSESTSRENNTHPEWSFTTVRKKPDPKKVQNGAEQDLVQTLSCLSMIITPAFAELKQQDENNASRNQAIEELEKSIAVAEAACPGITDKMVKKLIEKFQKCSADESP
Sequence of Mitogen-activated protein kinase kinase kinase 9 (Homo sapiens) (P80192 whole entry, looked up, the tested form may be a part): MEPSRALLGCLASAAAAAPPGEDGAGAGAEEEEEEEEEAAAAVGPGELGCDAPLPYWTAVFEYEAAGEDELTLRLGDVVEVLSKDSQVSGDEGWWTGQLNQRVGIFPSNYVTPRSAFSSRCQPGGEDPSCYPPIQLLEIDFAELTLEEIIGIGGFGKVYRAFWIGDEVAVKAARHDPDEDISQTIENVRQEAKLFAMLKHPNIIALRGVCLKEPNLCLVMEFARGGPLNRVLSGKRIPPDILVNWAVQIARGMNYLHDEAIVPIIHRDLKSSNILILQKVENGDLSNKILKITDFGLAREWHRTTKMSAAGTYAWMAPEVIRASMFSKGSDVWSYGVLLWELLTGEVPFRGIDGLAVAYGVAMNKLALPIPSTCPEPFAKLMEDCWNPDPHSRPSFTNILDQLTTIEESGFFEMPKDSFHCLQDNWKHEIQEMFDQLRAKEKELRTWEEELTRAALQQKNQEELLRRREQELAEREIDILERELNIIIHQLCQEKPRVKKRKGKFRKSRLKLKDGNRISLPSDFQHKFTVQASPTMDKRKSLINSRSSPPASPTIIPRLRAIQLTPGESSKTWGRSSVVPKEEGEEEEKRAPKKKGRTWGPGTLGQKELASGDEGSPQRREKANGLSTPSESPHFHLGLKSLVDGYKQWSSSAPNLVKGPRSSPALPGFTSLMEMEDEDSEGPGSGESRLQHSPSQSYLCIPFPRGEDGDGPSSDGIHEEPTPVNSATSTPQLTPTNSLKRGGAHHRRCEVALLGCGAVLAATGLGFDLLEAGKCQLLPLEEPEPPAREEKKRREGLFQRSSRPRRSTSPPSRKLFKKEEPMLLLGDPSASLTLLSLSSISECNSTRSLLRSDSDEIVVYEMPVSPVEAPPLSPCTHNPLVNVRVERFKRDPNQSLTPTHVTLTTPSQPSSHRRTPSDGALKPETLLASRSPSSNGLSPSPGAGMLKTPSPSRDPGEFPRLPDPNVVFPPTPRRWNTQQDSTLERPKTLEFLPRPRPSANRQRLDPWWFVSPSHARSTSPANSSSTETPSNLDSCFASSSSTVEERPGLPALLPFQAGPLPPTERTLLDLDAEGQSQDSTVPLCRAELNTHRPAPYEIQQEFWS
Sequence of Serine/threonine-protein kinase tousled-like 1 (Homo sapiens) (Q9UKI8 whole entry, the tested form may be a part): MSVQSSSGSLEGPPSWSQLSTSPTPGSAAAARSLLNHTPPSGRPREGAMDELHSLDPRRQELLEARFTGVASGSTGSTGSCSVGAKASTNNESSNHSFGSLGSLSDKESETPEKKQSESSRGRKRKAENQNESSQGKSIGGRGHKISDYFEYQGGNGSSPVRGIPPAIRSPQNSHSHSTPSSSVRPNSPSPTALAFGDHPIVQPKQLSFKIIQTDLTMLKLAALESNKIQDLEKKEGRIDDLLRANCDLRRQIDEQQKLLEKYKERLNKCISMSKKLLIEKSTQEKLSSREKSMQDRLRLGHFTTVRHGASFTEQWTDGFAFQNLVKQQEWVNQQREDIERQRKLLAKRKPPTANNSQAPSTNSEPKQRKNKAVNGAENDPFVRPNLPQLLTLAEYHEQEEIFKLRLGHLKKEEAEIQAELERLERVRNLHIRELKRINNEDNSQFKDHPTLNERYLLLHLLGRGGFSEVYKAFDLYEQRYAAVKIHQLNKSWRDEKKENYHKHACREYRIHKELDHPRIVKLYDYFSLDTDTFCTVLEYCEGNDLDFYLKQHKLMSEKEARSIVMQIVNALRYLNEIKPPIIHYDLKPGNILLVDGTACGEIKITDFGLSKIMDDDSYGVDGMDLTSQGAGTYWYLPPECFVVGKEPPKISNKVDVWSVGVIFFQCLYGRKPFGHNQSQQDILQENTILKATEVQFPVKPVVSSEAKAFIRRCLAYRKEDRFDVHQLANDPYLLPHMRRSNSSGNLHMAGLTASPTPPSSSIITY
Sequence of Protein kinase C eta type (Homo sapiens) (P24723 whole entry, the tested form may be a part): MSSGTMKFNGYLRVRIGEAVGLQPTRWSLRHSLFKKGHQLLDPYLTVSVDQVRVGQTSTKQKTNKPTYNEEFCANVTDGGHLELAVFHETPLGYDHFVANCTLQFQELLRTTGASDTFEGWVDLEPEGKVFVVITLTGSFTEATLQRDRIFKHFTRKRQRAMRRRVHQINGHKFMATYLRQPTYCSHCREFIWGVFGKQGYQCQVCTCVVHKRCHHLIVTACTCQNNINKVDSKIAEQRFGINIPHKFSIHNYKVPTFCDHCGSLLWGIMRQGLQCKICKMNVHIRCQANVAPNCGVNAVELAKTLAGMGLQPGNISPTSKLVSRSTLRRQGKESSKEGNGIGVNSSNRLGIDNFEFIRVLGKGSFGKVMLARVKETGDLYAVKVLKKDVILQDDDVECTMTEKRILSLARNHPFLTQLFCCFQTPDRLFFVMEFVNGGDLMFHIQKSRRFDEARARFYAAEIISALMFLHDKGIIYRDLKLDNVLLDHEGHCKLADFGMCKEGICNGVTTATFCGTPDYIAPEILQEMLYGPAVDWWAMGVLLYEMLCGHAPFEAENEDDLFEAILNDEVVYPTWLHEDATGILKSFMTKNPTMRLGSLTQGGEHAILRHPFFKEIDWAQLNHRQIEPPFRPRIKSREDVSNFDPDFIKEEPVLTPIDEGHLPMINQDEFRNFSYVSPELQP

With `CC(C)N1C(=O)C(NCCCN(C)C)=C(c2cn(C)c3ccccc23)C1=O.Cl`, the Activity in test [1] is 100%; in test [2] it was 100%; in [3], 93%; in [4], 91%; in test [5] it was 100%; in test [6] it was 94%. The Activity turned out to be 87% in [7]; 95% in [8]; 100% in test [9]; 99% in test [10]; 83% in test [11]; 95% in test [12]. For the same compound, the Activity in test [13] came to 84%; in test [14], 94%; in test [15], 100%; in [16], 100%; in [17], 97%; in test [18] it was 82%. Moreover, the Activity in [19] came out at 99%; in [20], 98%; in test [21], 93%; in test [22], 95%; in [23], 100%; in test [24], 93%.
